Data taken from patent US8828991B2, “Azacyclyl-substituted arylthienopyrimidinones, process for their preparation and their use as medicaments” (Sanofi, priority 2006, dated 2014).

What follows are molecules tested against T1, human MCH receptor (Homo sapiens, UniProt Q99705) (assay: calcium immobilization assay: functional IC50 of MCH1R antagonists (cellular calcium flux, FLIPR)). Settings: recombinant HEK293 cell line expressing the human MCH receptor, calcium flux after addition of agonist (MCH).
T1 construct: expressed in transfected cells
Format: cell-based
Source text: Influence on the MCH receptor in vitro; determination of functional IC50 values of MCH1R antagonists
Cloning of the cDNA for the human MCH receptor, preparation of a recombinant HEK293 cell line which expresses the human MCH receptor, and functional measurements with the recombinant cell line took place in analogy to the description by Audinot et al. (J. Biol. Chem. 276, 13554-13562, 2001). A difference from the reference was, however, the use of the plasmid pEAK8 from EDGE Biosystems (JSA) for the construction of the expression vector. The host used for the transfection was a transformed HEK cell line named “PEAK Stable Cells” (likewise from EDGE Biosystems). Functional measurements of the cellular calcium flux after addition of agonist (MCH) in the presence of ligand of the invention took place with the aid of the FLIPR apparatus from Molecular Devices (USA), using protocols of the apparatus manufacturer. The compounds of the invention show a significant inhibition (>30%) of the signal induced by the agonist at a concentration of 100 μM, preferably at 10 μM, particularly preferably at 1 μM, very particularly preferably at 100 nM and even more particularly preferably at 10 nM.

T1 sequence (Q99705 whole entry): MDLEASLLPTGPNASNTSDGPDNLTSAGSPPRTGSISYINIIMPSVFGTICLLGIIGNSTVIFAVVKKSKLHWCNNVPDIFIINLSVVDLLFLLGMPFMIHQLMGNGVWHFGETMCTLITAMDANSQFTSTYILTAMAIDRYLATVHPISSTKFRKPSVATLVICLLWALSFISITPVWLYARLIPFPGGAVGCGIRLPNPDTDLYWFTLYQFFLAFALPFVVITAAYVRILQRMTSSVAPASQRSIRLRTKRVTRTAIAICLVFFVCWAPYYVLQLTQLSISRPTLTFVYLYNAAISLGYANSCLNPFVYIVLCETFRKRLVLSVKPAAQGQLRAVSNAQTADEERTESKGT

IC50 [nM]	Structure (SMILES)
180	CC(O)C#Cc1cc2ncn(-c3ccc(N4CC[C@@H](N(C)C)C4)c(F)c3)c(=O)c2s1 (stereo partly drawn) [Example 49]
320	CN(CCS(C)(=O)=O)[C@@H]1CCN(c2ccc(-n3cnc4cc(CCC5CC5)sc4c3=O)cc2)C1 [Example 50, 6-(2-Cyclopropylethyl)-3-(4-{(R)-3-[(2-methanesulfonylethyl)methylamino]pyrrolidin-1-yl}phenyl)-3H-thieno[3,2-d]pyrimidin-4-one]
2090	COC(C)(C)CCc1cc2ncn(-c3ccc(N4CC[C@@H](N(C)C)C4)cc3)c(=O)c2s1 [Example 57]
560	COCCCc1cc2ncn(-c3ccc(N4CC[C@@H](N5CCCC5)C4)c(F)c3)c(=O)c2s1 [Example 61]
240	CCC(O)CCc1cc2ncn(-c3ccc(N4CC[C@@H](N5CCCC5)C4)c(F)c3)c(=O)c2s1 (stereo partly drawn) [Example 63]
1330	CN(C)[C@@H]1CCN(c2ccc(-n3cnc4cc(N5CCCCC5)sc4c3=O)cc2)C1 [Example 65, 3-[4-((R)-3-Dimethylaminopyrrolidin-1-yl)phenyl]-6-piperidin-1-yl-3H-thieno[3,2-d]pyrimidin-4-one]
2950	CCO/C=C\c1cc2ncn(-c3ccc(N4CCCN(C)CC4)cc3)c(=O)c2s1 [Example 74, 6-((Z)-2-Ethoxyvinyl)-3-[4-(4-methyl[1,4]diazepan-1-yl)phenyl]-3H-thieno[3,2-d]pyrimidin-4-one]
8740	CN1CCCN(c2ccc(-n3cnc4cc(C(=O)C5CCCC5)sc4c3=O)cc2)CC1 [Example 76, 6-Cyclopentanecarbonyl-3-[4-(4-methyl[1,4]diazepan-1-yl)phenyl]-3H-thieno[3,2-d]pyrimidin-4-one]
9030	CN1CCCN(c2ccc(-n3cnc4cc(C(O)C5CCCC5)sc4c3=O)cc2)CC1 (stereo not drawn) [Example 77, 6-(Cyclopentylhydroxymethyl)-3-[4-(4-methyl[1,4]diazepan-1-yl)phenyl]-3H-thieno[3,2-d]-pyrimidin-4-one]
340	CCCOCc1cc2ncn(-c3ccc(N4CCC(N(C)C)C4)cc3)c(=O)c2s1 (stereo not drawn) [Example 95, 3-[4-(3-Dimethylamino-pyrrolidin-1-yl)-phenyl]-6-propoxymethyl-3H-thieno[3,2-d]pyrimidin-4-one]
600	CN(C)C1CCN(c2ccc(-n3cnc4cc(COCC5CC5)sc4c3=O)cc2)C1 (stereo not drawn) [Example 96, 6-Cyclopropylmethoxymethyl-3-[4-(3-dimethylamino-pyrrolidin-1-yl)-phenyl]-3H-thieno[3,2-d]pyrimidin-4-one]

Continued, molecule first:

Structure (SMILES)	IC50 [nM]
CC(C)C(O)C#Cc1cc2ncn(-c3ccc(N4CCCN(C)CC4)cc3)c(=O)c2s1 (stereo not drawn) [Example 26]	1100
CC(O)C#Cc1cc2ncn(-c3ccc(N4CC[C@@H](N(C)C)C4)cc3)c(=O)c2s1 (stereo partly drawn) [Example 30, 3-[4-((R)-3-Dimethylaminopyrrolidin-1-yl)phenyl]-6-(3-hydroxybut-1-ynyl)-3H-thieno[3,2-d]pyrimidin-4-one]	380
CN(C)[C@@H]1CCN(c2ccc(-n3cnc4cc(C#CC5(O)CCCC5)sc4c3=O)cc2)C1 [Example 32]	1350
CC(O)C#Cc1cc2ncn(-c3ccc(N4CC[C@@H](N(C)CCS(C)(=O)=O)C4)cc3)c(=O)c2s1 (stereo partly drawn) [Example 38]	440
COCC#Cc1cc2ncn(-c3ccc(N4CC[C@@H](N(C)CCS(C)(=O)=O)C4)cc3)c(=O)c2s1 [Example 39]	920
CCC(O)C#Cc1cc2ncn(-c3ccc(N4CC[C@@H](N(C)CCS(C)(=O)=O)C4)cc3)c(=O)c2s1 (stereo partly drawn) [Example 40]	660
C[C@@H](O)C#Cc1cc2ncn(-c3ccc(N4CC[C@@H](N5CCCC5)C4)c(F)c3)c(=O)c2s1 [Example 42]	180
CS(=O)(=O)CCN1CCCN(c2ccc(-n3cnc4cc(C#CC5CC5)sc4c3=O)cc2)CC1 [Example 44, 6-Cyclopropylethynyl-3-{4-[4-(2-methanesulfonyl-ethyl)-[1,4]diazepan-1-yl]-phenyl}-3H-thieno[3,2-d]pyrimidin-4-one]	740
CN(C)[C@@H]1CCN(c2ccc(-n3cnc4cc(C#CC5CC5)sc4c3=O)cc2)C1 [Example 45, 6-Cyclopropylethynyl-3-[4-((R)-3-dimethylamino-pyrrolidin-1-yl)-phenyl]-3H-thieno[3,2-d]pyrimidin-4-one]	110
COCC#Cc1cc2ncn(-c3ccc(N4CC[C@@H](N(C)C)C4)c(F)c3)c(=O)c2s1 [Example 47]	230
